Data taken from patent US6387668B1, “Enantioselective epoxide hydrolases and genes encoding these” (Rijksuniversiteit Groningen, priority 1997, dated 2002).

Tests used:
epoxide hydrolase = epoxide hydrolase (Agrobacterium tumefaciens, UniProt O31243); assay: Kinetics of epoxide hydrolase with epichlorohydrin as substrate; assay type: biochemical, Agrobacterium radiobacter
Description: It is now possible to study the kinetics of epoxide hydrolase by performing rapid quench and stopped flow experiments. Stopped flow experiments are possible since substrate is able to quench the fluorescence signal of some of the tryptophans present in epoxide hydrolase. Also, it is possible to mutate (replace) the amino acids (e.g. tryptophans) that are involved in substrate binding. Either with site-directed mutagenesis or random mutagenesis, it is possible to modify the substrate specificity and the stereoselectivity of epoxide hydrolase. The epoxide hydrolase has the following characteristics.
The asymmetric hydrolysis of the substrate is generally conducted in aqueous solution. The pH of the solution is maintained by means of a buffer. Maximum enzyme activity is obtained at pH 9 but a range of pH 5 to 11 can be employed. The composition of the buffer can for example be Tris/H2SO4, potassium phosphate or glycine/NaOH. The maximum enzyme activity is obtained at a temperature of 50° C., but the reaction can be conducted at a temperature ranging from 5° C. to 65° C. The substrate concentration used to measure the enzyme activity is from 1 to 20 mM. In case of poorly soluble substrates, the water solubility can be increased by adding a miscible organic cosolvent such a DMSO. Also other organic solvents can be used. […]

[1] = Storage stability of recombinant epoxide hydrolase; assay type: physicochemical; conditions: 4° C., expressed in E.coli

ClCC1CO1 (stereo not drawn) [epichlorohydrin]
Km (epoxide hydrolase): < 30 µM
Vmax (epoxide hydrolase): 25 μmol min^−1.mg.protein^−1

B1: epoxide hydrolase: 34 kDa monomeric enzyme (approximately 294 amino acids) from Agrobacterium radiobacter AD1, expressed in E.coli (protein)
chain: MTIRRPEDFKHYEVQLPDVKIHYVREGAGPTLLLLHGWPGFWWEWSKVIGPLAEHYDVIVPDLRGFGDSEKPDLNDLSKYSLDKAADDQAALLDALGIEKAYVVGHDFAAIVLHKFIRKYSDRVIKAAIFDPIQPDFGPVYFGLGHVHESWYSQFHQLDMAVEVVGSSREVCKKYFKHFFDHWSYRDELLTEEELEVHVDNCMKPDNIHGGFNYYRANIRPDAALWTDLDHTMSDLPVTMIWGLGDTCVPYAPLIEFVPKYYSNYTMETIEDCGHFLMVEKPEIAIDRIKTAFR
Stability on storage [1]: stable at 4 °C for at least half a year
